Entries after “also recorded” stand apart in the source; their conditions may differ.
Tested on: human insulin receptor
Test: in vitro binding to the human insulin receptor
Settings: compared with wild-type biosynthetic human insulin (Figure S10)

Substance: [(1-^13C=^18O)Phe^B24]human insulin
- receptor-binding activity: full insulin receptor binding activity; also recorded: fully active in insulin receptor binding
